Reference: patent US6613304B2, “Radiometal complexes of 2-pyrrolylthiones and their use as radiopharmaceuticals for imaging and therapy” (University of British Columbia, priority 2000, dated 2003)
“Also recorded” adds a separate entry of the source. Values belong to the molecule of their own block, whether it stands above or below them.

Legend:
[1] = Stability towards oxidation; type: physicochemical; settings: for stability towards oxidation: in solid state and in solution
[2] = cited from earlier work; for clearance relative to OIH: % of that of OIH
[3] = cited from earlier work
[4] = Renal imaging: scintigraphic biodistribution of Tc-99m complexes in rats; type: in vivo, male Sprague and Dawley rats; settings: for scintigraphic image of the kidneys: one hour post injection, FIG. 5; for accumulation in the cortex: 1.5 min post injection, very fast linear accumulation
Protocol: A group of 3 male Sprague and Dawley rats were anaesthetised by intra-muscluar administration of a mixture of Ketamine Xylazine (1 ml/Kg). A 26 guage Butterfly was introduced into the lateral tail vein and filled with heparinised physiological saline. The animals were injected with the indicated radiopharmaceutical, in the minutes following the beginning of the acquisition.
Dose activities were measured in an Accucal 2001 dose calibrator Nuclear Pharmacy Inc. (Albuquerque, N. Mex., U.S.A). Scvintigraphic mages were recorded with a Starcam 4000i XRT Gamma camera General Electric (Saint Albans, UK) equipped with a parallel, medium energy, high resolution collimator. Image analysis was performed on a Genie PNR model nuclear medicine dedicated computer General Electric (Saint Albans, UK).
The camera was set to record a series of 32 images at 1 min intervals each, the animals were injected successively starting from animal A after the camera was started. All injections were finished within the first one and a half minute. Following each injection the catheter was flushed with 0.5 ml of physiological saline. Following this first acquisition a second dynamic acquisition was recorded at a rate of one image every 10 minutes. The animals woke up 90 min after injection at which time the study was terminated.
For analysis, the areas of interest were traced around the organs of interest (right and left kidneys for the first dynamic study; and heart, left kidney and bladder at image 60 min. post-injection on the second study) and the whole body of the rats. The result were expressed as counts per seconds or as percent of the whole body activity at a given time, and are presented in FIGS. 5-9.

[5] = healthy subjects; cited from earlier work

- stability at room temperature ([1]; atmospheric oxygen): unstable at room temperature
Molecule: COc1ccc(C(=S)c2ccc[nH]2)cc1OC [3,4-dimethoxyphenyl-2-pyrrolylthione, 3,4-Dimethoxyphenyl-2-pyrrolylthione]

Molecule: Nc1ccc(C(=O)NCC(=O)O)cc1 [PAH, p-aminohippurate]
- extracted from the renal arterial plasma in a single pass through the renal parenchyma ([2]; in vivo): ~90%

Molecule: O=C(O)CNC(=O)c1ccc(NC(=O)CN(CC(=O)O)CC(=O)O)cc1 [PAHIDA, p-[(biscarboxymethylaminomethyl)carbamino]hippuric acid]
- clearance relative to OIH [2]: less than 50%

Molecule: O=C([O-])CN=C([O-])CN=C([O-])CN=C([O-])C[S-].[O-2].[Tc+4] [Tc-99m-MAG3, ^99mTc-mercaptoacetyltriglycine]
- clearance relative to OIH [2]: 50-60%
- injected dose found in the kidneys ([2]; a few minutes post injection): 1-2%
- plasma protein binding [3]: very high

- stability towards oxidation [1]: stable towards oxidation
Molecule: Bis(2,2′-dipyrrolylthionato) ^99g Tc]oxotechnetium [compound 6]

- stability towards oxidation [1]: stable towards oxidation
Molecule: Bis(3,4-dimethoxyphenyl-2-pyrrolylthionato) [99g Tc]oxotechnetium [compound 8]

- stability towards oxidation [1]: stable towards oxidation
Molecule: Bis(p-methoxyphenyl-2-pyrrolylthionato) [^99g Tc]oxotechnetium [compound 7]

- activity in the calyx area ([4]; 1 hour post-injection): significant activity in the calyx area
- blood clearance (heart area used as a measure of blood activity) ([4]; 1 hour post-injection): more rapidly cleared
- overall kidney uptake ([4]; 1 hour post-injection, left kidney only): highest activity
Molecule: Tc-99m-dimercaptosuccinic acid [DMSA, reference compound]
- scintigraphic image of the kidneys [4]: kidneys are well visualised
- plasma protein binding [3]: almost completely bound to the proteins
- steady level of renal uptake, of the activity administered [5]: ~30%
- time after injection until which renal activity increases [5]: 6 to 8 h

- accumulation in the cortex [4]: 20%
- excretion rate as evaluated by measuring the activity found in the bladder ([4]; 1 hour post-injection): best excretion rate
- detected radioactivity in the kidneys reaching a plateau ([4]; as compared to DMSA, FIGS. 6-8): reach a plateau more rapidly
- accumulation in the cortex at plateau ([4]; plateau at about 35 min to 1 hour post injection): 22%
Molecule: ^99mTcO-disulfo-di-2-pyrrolylthionate [compound 9]
- scintigraphic image of the kidneys ([4]; listed as TcSL-11): better resolved the kidneys; also recorded: kidneys are well visualised

- accumulation in the cortex [4]: 20%
- excretion rate as evaluated by measuring the activity found in the bladder ([4]; 1 hour post-injection): best excretion rate
Molecule: ^99mTcO-tetrasulfo-di-2-pyrrolylthionate [compound 10]
